Measurements from US20060002994A1, “Responsive liposomes for ultrasonic drug delivery” (priority 2004, published 2006).
Read-outs that look alike come from different tables or passages of the source.

How the values were obtained:
[1] = Critical micelle concentrations (CMC) of detergents; assay type: physicochemical; conditions: source not stated
Description: RESULTS: Some ethylene glycol-containing surfactants can cause enhanced release of a self-quenching fluorescent marker dye from liposomes under 20 kHz ultrasound stimulation.[19] In FIG. 4, the rate of fluorescence increase caused by release of liposomally-entrapped calcein dye is shown in liposomes treated with five different surfactants. The total surfactant concentrations were normalized to the CMCs (Table 1, below). CMCs for TRITON® X-100, TRITON® X-405, PLURONIC® P-105 [20] and TWEEN® 80 were obtained from the literature. All surfactants, except DPPE-PEG2000, were dissolved in the buffer prior to the introduction of the liposomes. DPPE-PEG2000 was incorporated into the liposomes prior to extrusion. For all surfactants except TRITON® X-100, the rate of fluorescence increase in the absence of ultrasound was <0.04% per second, i.e., off the bottom of the figure. (At the higher TRITON® X-100 concentrations, the spontaneous leakage was >0.11% per second.) All of the surfactants induced about a 10-15 fold increase in the response to 20 kHz ultrasound. More remarkably, the surfactants reached maximal effectiveness at concentrations of about 1% of the critical micelle concentration. […] Furthermore, the different surfactants plateau at different levels. […]

[2] = Estimated partition coefficients (K) of detergents into the lipid membrane; assay type: physicochemical; conditions: estimated as inverse of CMC; P-105 at 37° C.
Description: Critical micelle concentrations (CMC) and estimated partition coefficients (K) of several detergents assayed. For membrane-solubilizing detergents, the product of the CMC and the partition coefficient is of order unity.

[3] = obtained from the literature; P-105 at 37° C.; cited from earlier work

Row | Substance | CMC [1] | K (estimated partition coefficient) [2] | CMC [3]
1 | 1,2-dipalmitoyl-sn-glycero-3-phosphoethanolamine-N-methoxy(polyethylene glycol)2000 [DPPE-PEG2000, reference compound] | 70 µM | 14300 M⁻¹ | 
2 | TWEEN ® 20 | 80 µM | 12500 M⁻¹ | 
3 | TWEEN ® 80 |  | 10000 M⁻¹ | 100 µM
